From publication PMC3943356 (Bioorganic & medicinal chemistry letters, 2013)
Where a name gives a salt, the structure may show the parent alone. Read-outs that look alike come from different tables or passages of the source.

How the values were obtained:
VGLUT [1] = assay: Inhibition of 3H-L-Glu uptake into synaptic vesicles prepared from rat brain; details: for reduction (block) of L-Glu uptake: compound at 250 µM, 3H-L-Glu 250 µM
VGLUT [2] = molecular target: VGLUT
AMPA receptors = details: cited from earlier work
NMDA receptor = details: cited from earlier work
KA receptors = details: cited from earlier work
VGLUT [3] = details: read-out: Ki at VGLUT; cited from earlier work

Question: With `N[C@@H](CCC(=O)O)C(=O)O` [L-Glu, Glutamate] as the compound, how does the Km (VGLUT [1]; read-out: Km of L-Glu uptake, Lineweaver-Burk plot, Fig. 3) read?
Answer: Its Km is 2500 µM.

Question: What does the source list for `O=C(O)c1cc(C(=O)O)c2ccc3cc4ccccc4cc3c2n1` [7,8-NQDC, Naphtho[2,3-h]quinoline-2,4-dicarboxylic acid]?
Answer: Ki (VGLUT [2]): ~60 µM; reduction (block) of L-Glu uptake (VGLUT [1]): similarly effective

Question: Which “reduction (block) of L-Glu uptake” value (VGLUT [1]) does the source give for `C[C@]12CC[C@@H]3c4ccc(OC(=O)CCC(=O)O)cc4CC[C@H]3[C@@H]1CCC2=O` [Estrone hemisuccinate] here?
Answer: Its value is “inactive”.

Question: Which Ki (VGLUT [2]) does the source give for `O=C(O)c1cc(C(=O)O)c2c(ccc3cc4ccccc4cc32)n1` [5,6-NQDC, Naphtho[2,3-f]quinoline-1,3-dicarboxylic acid] here?
Answer: The Ki was roughly 60 µM.

Question: And the “reduction (block) of L-Glu uptake” value (VGLUT [1])?
Answer: The value was “over 80%”.

Question: For `C[C@]12CC[C@@H]3c4ccc(O)cc4CC[C@H]3[C@@H]1CCC2=O` [Estrone], which “reduction (block) of L-Glu uptake” value (VGLUT [1]) is on record?
Answer: Its value is “did not block L-Glu uptake to any appreciable level”.

Question: For `CC(=O)[C@H]1CC[C@H]2[C@@H]3CC[C@@H]4C[C@@H](OS(=O)(=O)O)CC[C@]4(C)[C@H]3CC[C@]12C` [Pregnanolone sulfate], which “effect on AMPA receptors” value (AMPA receptors) is on record?
Answer: The value was “inhibits”.

Question: And the “effect on NMDA receptor” value (NMDA receptor)?
Answer: Its value is “inhibits”.

Question: What about the “activity relative to the endogenous substrate L-Glu” value (VGLUT [1]) of the same compound?
Answer: The value was “approximately 100 fold”.

Question: What about the mechanism of inhibition (VGLUT [1]; Lineweaver-Burk plot, increase in Km,app, no change in Vmax) of the same compound?
Answer: The mechanism of inhibition was “competitive inhibition”.

Question: What about the “reduction (block) of L-Glu uptake” value (VGLUT [1]) of the same compound?
Answer: Its value is 85%.

Question: And the “effect on KA receptors” value (KA receptors)?
Answer: Its value is “inhibits”.

Question: Which Ki (VGLUT [3]) does the source give for `CC(C)CC1C(=O)N2CCCC2C2(O)OC(NC(=O)C3C=C4c5cccc6[nH]c(Br)c(c56)CC4N(C)C3)(C(C)C)C(=O)N12` (centres unmarked) [bromocryptine] here?
Answer: The Ki was roughly 22 µM.

Question: Which “reduction (block) of L-Glu uptake” value (VGLUT [1]) does the source give for `CC(=O)[C@H]1CC[C@H]2[C@@H]3CC=C4C[C@@H](O)CC[C@]4(C)[C@H]3CC[C@]12C` [Pregnenolone] here?
Answer: Its value is “did not block L-Glu uptake to any appreciable level”.

Question: What does the source list for Pregnenolone sulfate?
Answer: effect on NMDA receptor (NMDA receptor): potentiate; reduction (block) of L-Glu uptake (VGLUT [1]): 70%
